# In paper PMC4527730, “A Pan-GTPase Inhibitor as a Molecular Probe” (PLoS ONE, 2015):
# Tests used:
# Cdc42 = Cdc42 (Homo sapiens, UniProt P60953); assay: GTPase and effector interaction assay (PAK-PBD beads), HeLa cell lysates; details: HeLa cells, 10 μM, 2 h, EGF 10 ng/mL 2 min
# Procedure: GST effector chimeras consisting of the minimal GTPase binding domain were p21-activated kinase p21 binding domain (PAK-PBD) for Cdc42, Raf1 Ras-binding domain (Raf1-RBD) for Ras, and Rab-interacting lysosomal protein (RILP) for Rab7 binding measurements.
# Superdex peptide beads (13 μm, from GE Healthcare) derivatized with GSH were coated with effector proteins to saturation. […] The effector-coated glutathione beads (20,000 beads/assay) were incubated with 200 μL cell lysate from a single treated well for 1 h at 4°C. […] The bead associated fluorescence representing bound GTPase was quantified on an Accuri C6 flow cytometer.
# [1] = system: integrin VLA-4 on U937 FPRΔST cells; assay: Integrin activation assay (LDV-FITC binding); assay type: cell-based; details: LDV-FITC 4 nM, fMLFF 100 nM
# Procedure: The procedure followed the protocols described previously. U937 FPRΔST cells (0.4~0.8 x 10^6 cells/mL) were continuously stirred with a magnetic stir bar at 500 rpm in a test tube. The fluorescence was recorded on a FACScan flow cytometer. The baseline fluorescence of the cells was established for 30 s. Then LDV-FITC at 4 nM was added. After the fluorescence stabilized at ~120 s, the chemotactic ligand fMLFF at 100 nM was added for stimulation. […] All the concentrations given were the final concentrations. The percent inhibition was calculated according to Equation 1 (Supporting Information).
# [2] = system: phospho-Erk 1/2 in H358 cells; assay: Western blotting of Erk1/2 phosphorylation downstream of Ras signaling; assay type: cell-based; details: 10 μM, 1 h; complete medium or FBS stimulated after starvation
# Procedure: H358 lung cancer cells were seeded at 10^6 cells/well in 6–well plates. […] Then cells were stimulated with 10% FBS for 5 min and lysed in 150 μl RIPA buffer. Cell lysates were processed for SDS-PAGE, transferred to PVDF membranes and probed with a monoclonal antibody directed against phospho-Erk 1/2 (from Cell Signaling) and a monoclonal antibody directed against Erk 1/2 (from Cell Signaling) followed by an HRP labeled ECL anti-mouse IgG (from GE Healthcare).
# Chain of Cdc42 (P60953 whole entry): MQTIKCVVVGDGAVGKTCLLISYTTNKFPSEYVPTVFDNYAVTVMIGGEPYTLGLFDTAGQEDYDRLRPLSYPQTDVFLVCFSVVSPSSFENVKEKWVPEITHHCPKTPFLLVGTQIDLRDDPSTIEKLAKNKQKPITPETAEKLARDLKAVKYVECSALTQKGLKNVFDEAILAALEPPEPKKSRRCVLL
compound,measurement,setting,value
CC1(C)Cc2c(sc(NC(=S)NC(=O)c3ccccc3)c2C(=O)O)CO1 [Compound 1],level of active Cdc42 after EGF stimulation,Cdc42,below the basal levels
same,integrin VLA-4 activation (LDV-FITC binding after fMLFF),[1],caused diminished binding
same,phosphorylation level of Erk 1/2,[2],decreased
